The values below come from ChEMBL document CHEMBL1201862, “PubChem BioAssay data set” (2004).

The nature of assay [1]: Vero cell cytotoxicity, dose response, cytotoxicity control for Vif-APOBEC3G degradation inhibitor project, Vero cells (AID 1117358). Type of assay: functional. Particulars: Human immunodeficiency virus 1, Vero.
In assay [2] the target is T1, Zinc finger protein mex-5 (Caenorhabditis elegans, UniProt Q9XUB2).
T1 sequence (Q9XUB2 whole entry): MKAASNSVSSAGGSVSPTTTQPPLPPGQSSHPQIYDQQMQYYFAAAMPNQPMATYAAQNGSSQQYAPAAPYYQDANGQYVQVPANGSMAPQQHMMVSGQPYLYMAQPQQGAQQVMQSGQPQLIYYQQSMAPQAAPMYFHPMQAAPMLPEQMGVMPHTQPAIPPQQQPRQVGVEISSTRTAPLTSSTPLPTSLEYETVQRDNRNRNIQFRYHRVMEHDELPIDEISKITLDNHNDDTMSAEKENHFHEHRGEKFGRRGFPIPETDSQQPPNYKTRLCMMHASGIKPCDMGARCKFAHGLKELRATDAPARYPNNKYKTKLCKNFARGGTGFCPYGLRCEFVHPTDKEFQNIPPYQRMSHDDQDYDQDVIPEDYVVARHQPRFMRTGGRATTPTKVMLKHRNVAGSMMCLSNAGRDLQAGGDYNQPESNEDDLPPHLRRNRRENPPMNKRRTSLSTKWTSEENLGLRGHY
Description: MEX-5/TCR-2 RNA interaction inhibitors, dose response, biochemical, C. elegans, fluorescence polarization (AID 1960). Background: Fluorescence polarisation rises when a labelled molecule tumbles more slowly, as on binding a larger partner.

Assay [3] concerns the target Glutathione-S-transferase (Schistosoma japonicum, UniProt Q26513). The assay can be described thus: biotin-GST/anti-GST TR-FRET signal inhibitors, dose response, artefact control for Vif-APOBEC3G degradation inhibitor project, biochemical (AID 1117362). It counts as functional. A general note: In TR-FRET formats the signal depends on donor and acceptor labels being close together.

The target of assay [4] is T2, Apoptotic protease-activating factor 1 (Homo sapiens, UniProt O14727).
T2 sequence (O14727 whole entry): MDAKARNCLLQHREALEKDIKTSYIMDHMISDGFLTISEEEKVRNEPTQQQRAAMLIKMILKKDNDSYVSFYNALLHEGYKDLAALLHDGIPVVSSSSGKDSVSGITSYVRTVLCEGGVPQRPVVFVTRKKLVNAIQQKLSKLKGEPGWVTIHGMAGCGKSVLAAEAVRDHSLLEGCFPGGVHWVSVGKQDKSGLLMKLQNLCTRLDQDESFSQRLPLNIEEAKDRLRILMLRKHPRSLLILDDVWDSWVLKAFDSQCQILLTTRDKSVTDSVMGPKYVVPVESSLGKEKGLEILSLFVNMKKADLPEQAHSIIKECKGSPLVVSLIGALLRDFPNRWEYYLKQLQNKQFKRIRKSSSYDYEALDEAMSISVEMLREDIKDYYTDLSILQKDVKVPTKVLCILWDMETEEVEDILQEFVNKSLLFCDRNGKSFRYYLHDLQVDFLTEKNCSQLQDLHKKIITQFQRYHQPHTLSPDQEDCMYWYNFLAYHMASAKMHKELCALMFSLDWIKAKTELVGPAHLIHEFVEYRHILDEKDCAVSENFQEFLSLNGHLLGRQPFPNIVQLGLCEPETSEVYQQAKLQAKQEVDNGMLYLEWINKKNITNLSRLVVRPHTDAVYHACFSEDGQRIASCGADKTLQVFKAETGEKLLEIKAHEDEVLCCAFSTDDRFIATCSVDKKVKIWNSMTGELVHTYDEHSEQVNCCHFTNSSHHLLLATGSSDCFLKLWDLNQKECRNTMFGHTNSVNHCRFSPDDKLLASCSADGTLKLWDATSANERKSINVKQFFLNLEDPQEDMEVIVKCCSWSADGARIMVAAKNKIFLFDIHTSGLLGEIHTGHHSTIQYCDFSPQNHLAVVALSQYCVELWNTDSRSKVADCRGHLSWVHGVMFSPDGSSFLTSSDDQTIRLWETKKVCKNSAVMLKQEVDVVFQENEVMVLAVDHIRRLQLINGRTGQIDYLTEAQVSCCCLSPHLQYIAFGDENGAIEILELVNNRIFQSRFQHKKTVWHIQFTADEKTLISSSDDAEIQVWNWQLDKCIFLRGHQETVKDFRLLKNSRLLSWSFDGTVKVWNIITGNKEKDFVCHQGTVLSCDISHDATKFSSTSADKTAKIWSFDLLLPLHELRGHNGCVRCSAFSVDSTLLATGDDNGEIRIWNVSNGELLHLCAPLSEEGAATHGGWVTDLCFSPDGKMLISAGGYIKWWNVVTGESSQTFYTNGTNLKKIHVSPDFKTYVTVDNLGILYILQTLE
Type of assay: functional.

The target of the next assay is Genome polyprotein (dengue virus type 2, UniProt P29990). The assay can be described thus: Dengue-2 NS5 methyltransferase inhibitors, primary screen, biochemical, confirmation dose response (AID 588689). Type of assay: functional.
Genome polyprotein, sequence (P29990 2492-3391 limits assumed): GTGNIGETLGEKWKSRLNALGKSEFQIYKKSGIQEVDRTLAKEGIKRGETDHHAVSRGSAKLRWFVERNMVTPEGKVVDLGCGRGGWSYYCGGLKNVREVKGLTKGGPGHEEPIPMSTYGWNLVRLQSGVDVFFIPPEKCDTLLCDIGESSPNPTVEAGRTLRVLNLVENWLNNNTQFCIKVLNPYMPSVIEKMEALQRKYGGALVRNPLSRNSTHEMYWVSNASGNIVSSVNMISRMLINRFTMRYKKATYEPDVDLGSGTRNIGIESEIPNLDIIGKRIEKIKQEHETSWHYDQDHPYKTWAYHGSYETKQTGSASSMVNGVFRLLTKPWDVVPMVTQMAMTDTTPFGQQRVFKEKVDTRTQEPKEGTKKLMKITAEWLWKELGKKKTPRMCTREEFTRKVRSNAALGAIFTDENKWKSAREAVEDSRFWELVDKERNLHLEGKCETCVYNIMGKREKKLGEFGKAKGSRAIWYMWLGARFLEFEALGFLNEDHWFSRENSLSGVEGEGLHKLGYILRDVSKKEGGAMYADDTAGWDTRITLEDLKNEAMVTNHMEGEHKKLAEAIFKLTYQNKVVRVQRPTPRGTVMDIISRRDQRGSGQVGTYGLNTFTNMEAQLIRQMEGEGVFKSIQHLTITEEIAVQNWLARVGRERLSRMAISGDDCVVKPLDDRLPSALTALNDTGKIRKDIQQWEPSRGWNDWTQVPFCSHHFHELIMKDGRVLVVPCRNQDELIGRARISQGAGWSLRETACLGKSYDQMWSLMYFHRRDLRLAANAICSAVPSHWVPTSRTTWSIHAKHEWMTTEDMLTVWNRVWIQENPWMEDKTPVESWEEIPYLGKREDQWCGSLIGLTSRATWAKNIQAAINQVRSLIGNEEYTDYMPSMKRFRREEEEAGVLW
The target of assay [5] is T3, RNA-binding protein pos-1 (Caenorhabditis elegans, UniProt G5EF15).
T3 sequence (G5EF15 whole entry): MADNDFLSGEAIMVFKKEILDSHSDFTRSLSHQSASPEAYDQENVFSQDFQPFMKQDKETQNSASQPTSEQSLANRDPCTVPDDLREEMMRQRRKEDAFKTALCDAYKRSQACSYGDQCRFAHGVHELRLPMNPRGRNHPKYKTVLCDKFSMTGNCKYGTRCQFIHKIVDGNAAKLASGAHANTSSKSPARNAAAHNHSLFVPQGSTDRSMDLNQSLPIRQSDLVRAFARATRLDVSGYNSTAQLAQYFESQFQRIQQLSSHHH
The assay can be described thus: inhibitors of POS-1/mex-3 RNA binding, dose response, biochemical, fluorescence polarization (AID 1964).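 Also: purified POS-1 fused to maltose binding protein made in E. coli; potency of compounds blocking POS-1 binding to fluorescent RNA.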

Assay [6] can be described thus: Jurkat T cell cytotoxicity, dose response, cytotoxicity control for P. falciparum gametocyte viability project, luminescence (AID 1117277).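 Also: potency reflects loss of cellular ATP meaning fewer viable cells.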 Type of assay: functional, cell-based.
Assay [7] can be described thus: P. falciparum late gametocyte killing, dose response, luminescence (AID 1117278).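 Also: gametocytes exposed to compound for 24 hours.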 It counts as functional, cell-based.
A short description of assay [8]: A549 cell cytotoxicity, dose response, CellTiter-Glo luminescence, dry powder, set 17 (AID 1117284). Type of assay: functional, cell-based. (In general: ATP-based viability assays read luminescence as a measure of living cells.)
A short description of assay [9]: A549 cell cytotoxicity, dose response, cytotoxicity control, 24 h, CellTiter-Glo luminescence, cherry-picks (AID 1053115). Type of assay: functional, cell-based. Particulars: A549, 24 h.
The target in assay [10] is T4, Low molecular weight phosphotyrosine protein phosphatase (Homo sapiens, UniProt P24666).
T4 sequence (P24666 whole entry): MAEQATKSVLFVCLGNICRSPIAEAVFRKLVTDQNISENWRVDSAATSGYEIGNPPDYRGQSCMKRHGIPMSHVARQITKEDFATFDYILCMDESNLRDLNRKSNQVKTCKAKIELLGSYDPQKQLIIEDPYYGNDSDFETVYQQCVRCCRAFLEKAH
The assay can be described thus: LMPTP phosphatase inhibitors, dose response, biochemical, OMFP substrate, fluorescence intensity, set 2 (AID 743307). Type of assay: functional.

Assay [11] deals with T4, Low molecular weight phosphotyrosine protein phosphatase. The assay can be described thus: LMPTP phosphatase inhibitors, colorimetric pNPP readout, dose response, orthogonal assay, biochemical, absorbance, pNPP substrate, LMPTP-A isoform, set 2 (AID 743308). Type of assay: functional.
A short description of assay [12]: HEK293T cell cytotoxicity, dose response, cytotoxicity control, plate reader, dry powder, set 10 (AID 743315). The following applies: HEK293. Type of assay: functional, cell-based.
A short description of assay [13]: HeLa 2N DNA content increase, dose response, cell-based, IC50 (AID 1117349). Type of assay: functional.
Assay [14] addresses ATP-dependent molecular chaperone HSP82 (Candida albicans (strain WO-1) (Yeast), UniProt C4YTQ8). The assay can be described thus: loss of DOC-induced GRE-beta-galactosidase reporter signal, dose response, Hsp90 inhibitor project, S. cerevisiae, luminescence (AID 2400).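 Also: beta-galactosidase luminescence from glucocorticoid response element reporter as proxy for Hsp90 function; inhibitor potency where signal loss means Hsp90 inhibition.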 It counts as functional, cell-based.
The target of assay [15] is Serine/threonine-protein phosphatase (Candida dubliniensis (strain CD36 / CBS 7987 / NCPF 3949 / NRRLY-17841) (Yeast), UniProt B9W6M3). Description: calcineurin pathway inhibitors in yeast reporter, dose response, S. cerevisiae, CDRE-lacZ, luminescence, secondary (AID 2388).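 Also: yeast reporter cells carrying a calcineurin-responsive lacZ construct stimulated with calcium chloride; luminescent beta-galactosidase reporter signal in whole cells rather than isolated phosphatase activity; potency for inhibition where a drop in reporter signal means calcineurin blockade.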 Type of assay: functional, cell-based.
Serine/threonine-protein phosphatase, sequence (B9W6M3 whole entry): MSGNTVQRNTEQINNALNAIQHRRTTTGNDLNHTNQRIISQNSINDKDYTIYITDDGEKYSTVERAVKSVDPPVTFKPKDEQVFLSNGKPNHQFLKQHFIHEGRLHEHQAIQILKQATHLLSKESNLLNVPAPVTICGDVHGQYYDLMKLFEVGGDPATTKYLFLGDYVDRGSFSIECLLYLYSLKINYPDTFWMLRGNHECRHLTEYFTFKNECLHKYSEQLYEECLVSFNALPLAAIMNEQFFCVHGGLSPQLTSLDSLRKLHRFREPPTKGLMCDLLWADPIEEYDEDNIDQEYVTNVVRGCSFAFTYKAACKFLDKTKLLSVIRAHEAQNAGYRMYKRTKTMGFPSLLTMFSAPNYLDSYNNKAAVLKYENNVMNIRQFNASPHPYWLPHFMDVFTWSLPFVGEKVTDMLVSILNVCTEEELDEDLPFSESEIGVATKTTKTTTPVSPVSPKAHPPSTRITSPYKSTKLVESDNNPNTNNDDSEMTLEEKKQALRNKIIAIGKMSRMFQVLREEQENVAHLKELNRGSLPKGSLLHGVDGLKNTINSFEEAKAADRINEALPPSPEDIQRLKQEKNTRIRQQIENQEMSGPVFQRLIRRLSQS
Assay [16] is described as follows: HeLa 4N DNA content increase, dose response, cell-based, IC50 (AID 1117351). Type of assay: functional.
Assay [17] in a line: NIH-3T3 fibroblast cytotoxicity, dose response, cytotoxicity control, cell-based, fluorescence, Alamar Blue, secondary assay (AID 2327).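 Also: NIH-3T3 mouse fibroblasts cultured with fluconazole at 8 µg/mL.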 Type of assay: functional.
Assay [18] is described as follows: cells. Type of assay: functional, cell-based.
Assay [19] can be described thus: C. albicans growth with fluconazole, confirmation, fluorescence, retest (AID 2467). Type of assay: functional, cell-based.
Assay [20] in a line: cells. It counts as functional, cell-based. This is another data set of the same source.
Assay [21] can be described thus: Dose-response inhibition of insulin secretion in a rat insulinoma line at 5 mM glucose (AID 1117331). It counts as functional, cell-based. Particulars: INS-1E.

SMILES strings stand for the structures. Counter-ions that a name gives are not always drawn. Active and inactive are the calls of the source.

ATP-dependent molecular chaperone HSP82, sequence (C4YTQ8 whole entry): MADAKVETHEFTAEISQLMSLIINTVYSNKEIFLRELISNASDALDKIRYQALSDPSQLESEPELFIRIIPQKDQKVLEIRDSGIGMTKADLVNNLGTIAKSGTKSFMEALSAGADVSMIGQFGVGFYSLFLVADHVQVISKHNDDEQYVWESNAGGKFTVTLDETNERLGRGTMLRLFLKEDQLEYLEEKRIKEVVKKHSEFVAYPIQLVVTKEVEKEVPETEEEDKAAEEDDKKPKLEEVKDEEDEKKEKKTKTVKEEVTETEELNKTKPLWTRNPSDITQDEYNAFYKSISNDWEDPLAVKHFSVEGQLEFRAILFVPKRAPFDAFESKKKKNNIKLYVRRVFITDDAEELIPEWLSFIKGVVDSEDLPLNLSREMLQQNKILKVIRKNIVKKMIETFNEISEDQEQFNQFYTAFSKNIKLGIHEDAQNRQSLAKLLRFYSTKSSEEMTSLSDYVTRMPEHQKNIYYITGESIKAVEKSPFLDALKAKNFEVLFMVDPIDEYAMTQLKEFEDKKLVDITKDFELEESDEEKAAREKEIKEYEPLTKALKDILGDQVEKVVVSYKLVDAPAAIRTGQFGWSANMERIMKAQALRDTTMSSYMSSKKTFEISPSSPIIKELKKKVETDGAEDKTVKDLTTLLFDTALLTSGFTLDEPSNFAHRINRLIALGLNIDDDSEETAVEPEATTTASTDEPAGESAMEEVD
Glutathione-S-transferase, sequence (Q26513 whole entry): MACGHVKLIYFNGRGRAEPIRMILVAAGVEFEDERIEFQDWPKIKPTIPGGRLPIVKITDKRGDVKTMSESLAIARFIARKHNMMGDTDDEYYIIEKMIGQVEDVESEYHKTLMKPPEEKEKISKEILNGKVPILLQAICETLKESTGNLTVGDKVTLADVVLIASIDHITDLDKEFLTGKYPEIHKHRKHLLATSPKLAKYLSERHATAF

As usually defined, the CC50 is the concentration that lowers cell viability or growth by half. As to `Oc1ccccc1-c1cc(C(F)(F)C(F)F)[nH]n1`, in assay [1], the CC50 is > 40 µM (active).

One may read the EC50 as the concentration giving half of the maximal effect. As usually defined, the IC50 is the concentration that inhibits the measured activity by half. In the case of `COC(=O)CCC(=O)OC1(C)C(=O)C2=CN(CCCOC(C)C)C(c3ccc(OC)cc3)=CC2=C(Br)C1=O` (configuration not stated), the EC50 was 42 µM (active) in assay [2] and 46.9 µM (active) in assay [5]. In addition, the IC50 was > 100 µM (active) in assay [3], 15.4 µM (active) in assay [4] and 19.8 µM (active) on Genome polyprotein.

As to `CCOC(=O)c1c(N)c2cc([N+](=O)[O-])cnc2n1C`, the IC50 in assay [6] is > 83.4 µM (inactive); in [7], > 109 µM (inactive).

Broadly, the AC50 is the midpoint of the concentration-response curve, whichever way the signal moves. Turning to `C[C@H]1CN([C@@H](C)CO)S(=O)(=O)c2ccc(C#CC(C)(C)O)cc2O[C@H]1CN(C)Cc1ccc(-c2ccccc2)cc1`, the AC50 in [8] was 20.4 µM (active); in assay [9], > 60 µM (inactive).

Take `c1ccc(-c2nc(NCCN3CCCC3)c3ccccc3n2)cc1`: the IC50 in assay [10] and in [11] was > 80 µM (inactive) throughout.

Turning to `CC(C)c1ccc(OCCn2c(=S)[nH]c3ccccc32)cc1`, the AC50 in assay [12] was 27.3 µM (active).

With `CC(=O)N(O)CCCCCNC(=O)CCC(=O)N(O)CCCCCNC(=O)CCC(=O)N(O)CCCCCN` [DEFEROXAMINE MESYLATE], the IC50 in [13] and in [16] was > 10 µM (inactive) each time. Besides, the EC50 is > 150 µM (inactive) in assay [14]; > 180 µM (inactive) in assay [15]; > 150 µM (inactive) in assay [17]; > 350 µM (not active) in the assay “cells [18]”; 0.578 µM (active) in assay [19]; 225 µM (active) in the assay “cells [20]”.

For the compound `CN1CCC(N(Cc2cccs2)c2ccccc2)CC1` [THENALIDINE], the IC50 in [21] was 20.4 µM (inactive).
